# US20250161282A1, “PHARMACEUTICAL PYRIDYL COMPOSITIONS FOR TREATING AND PREVENTING DELAYED GRAFT FUNCTION” (Unicycive Therapeutics, Inc., priority 2023, published 2025)
# Counter-ions that a name gives are not always drawn. Like-named read-outs stand apart in the source and are kept apart here.
# Experiments:
# [1] = Phase I study Part 2, multiple ascending doses (MAD), BID oral fasted; format: in vivo, human; details: for dose-proportionality of exposure from 40 mg to 80 mg (Cmax and AUC(0-tau)): Day 1, analyte = labelled substance; for Tmax at 5 days: read-out: median Tmax
# Excerpt: Part 2 of the study was a double-blind, randomized, placebo-controlled, MAD study.
# [2] = Phase I study Part 1, single ascending doses (SAD), oral fasted
# Protocol: (§1) In this Phase I study, the safety and tolerability of single ascending doses (SAD) of Compound 8 was administered to male and female subjects. The study was a single centre, double-blinded, placebo-controlled, randomized single ascending doses (SAD) and multiple ascending doses (MAD) study in healthy male and female subjects of non-childbearing potential.
# (§2) Part 1 was a double-blinded, randomized, placebo-controlled, SAD study, including approximately 32 subjects in 4 cohorts of 8 subjects each (randomized to a ratio of 6 active and 2 placebo per cohort). The subjects received the regimens presented in Table A. The route of administration was oral and fasted.
# (§3) Subjects received a single dose of Compound 8 Capsule or placebo in the morning following an overnight fast. For Regimen E, Period 2, cohort SAD 3 were readmitted to the clinical unit. There was a minimum 7-day washout between dosing occasions for Regimen C and Regimen E. Blood samples were collected at regular intervals for safety and PK analysis from Day −1 to discharge from the clinical unit.
# (§4) In Part 1 of the study, subjects received a single oral doses of Compound 8 Capsule or placebo on one occasion in the fasted state, except for subjects in Cohort SAD 3 who received two single doses on two separate occasions. Doses ranged from 10 mg to 160 mg. In Part 2 of the study, subjects received single doses of Compound 8 Capsule or placebo BID for 4 consecutive days and once on Day 5 in the fasted state. Doses ranged from 40 mg to 80 mg.
# [3] = tested on: rat bilateral ischemia/reperfusion (IR) model; experiment: rat bilateral ischemia/reperfusion (IR) model, oral Compound 8 (iodide salt); format: in vivo, male Sprague Dawley rats; details: for urine β2-MG levels and content compared with Group 2 (IR): iodide salt
# Excerpt: Animal models of IRI (ischemia reperfusion injury), DGF (delayed graft function), and AKI (acute kidney injury) mimic many features seen in human kidney allografts. […] In 2011, the FDA held a workshop to review the current state of knowledge related to the effects of IRI on outcomes in kidney transplantation in animal models. The FDA stated animal models have implicated maladaptive host responses to […]. The maladaptive responses are changes in hemodynamics, decrease in oxygen tension, mitochondrial dysfunction, tubular injury, inflammation, etc.
# In the rat bilateral IR model, the bilateral renal pedicle was clamped for 45 min for ischemia and then the clamp is removed to allow reperfusion. […] Urine β2-MG levels and content of Group 2 were higher than those in Group 1. Compared with Group 2, Groups 3 and 4 had lower urine β2-MG levels and content (n=10/group) (FIG. 1; […] at 10 mg/kg dose and p<0.01 at 20 mg/kg dose—as per one-way ANOVA multiple comparison test).
# [4] = clinical; details: both, human, plasma, oral
# Protocol: as §1, §2, §3, §4
# [5] = tested on: unilateral IR model of AKI in rats; experiment: unilateral IR model of AKI in rats (kidney functional markers, tubular injury); format: in vivo, male SD (Sprague Dawley) rats; details: for BUN vs IR vehicle: p<0.0001 (FIG. 4); for serum creatinine: p<0.0001 (FIG. 9A)
# Protocol: A total of […] male SD (Sprague Dawley) rats were divided into 10 groups each with 10 rats/group as detailed in the Table 3. The ischemia was induced in the left kidney using a small clamp (Sugita standard aneurysm clip holding force 145 g) that was placed on the renal vascular pedicle for 30 min for all groups except SHAM group.
# All rats were housed in metabolic cages for the collection of 24-hour urine samples for ACR, NGAL and β2-MG levels. After 24 hours, rats were anaesthetized, and blood samples were collected for sCre, and BUN levels. The left kidney was collected and processed for histology for tubular injury scores.
# A total of additional 10 male SD (Sprague Dawley) rats were used along with the Group 1 (No IR) and Group 2 (IR); and other Groups listed in the Tabel 3; and conducted the study. The ischemia was induced in the left kidney of those additional 10 rats using a small clamp (Sugita standard aneurysm clip holding force 145 g) that was placed on the renal vascular pedicle for 30 min.
# Nicorandil at 10 mg/kg, was administered 30 minutes prior to the induction of ischemia via intraperitoneal (ip) administration to the additional 10 rats along with the groups listed in Table 3. All additional 10 rats were housed in metabolic cages for the collection of 24-hour urine samples for ACR. After 24 hours, rats were anaesthetized, and blood samples were collected for sCre. The left kidney was collected and processed for histology for tubular injury scores along with the other groups as detailed in Table 3.
# [6] = nicorandil 10 mg; cited from earlier work
# [7] = tested on: contrast induced nephropathy; details: 10 mg BID dosing; cited from earlier work
smiles,measurement,setting,value
"CC(NC(=O)OC[n+]1cccc(C(=O)NCCO[N+](=O)[O-])c1)C1CCCCC1 (stereo in doubt) [Compound 8, (S)-1-(((1-cyclohexylethylcarbamoyl)oxy)methyl)-3-((2-(nitroxy)ethyl)carbamoyl)pyridine-1-ium iodide]",dose-proportionality of exposure from 40 mg to 80 mg (Cmax and AUC(0-tau)),[1],approximate proportional increase
same,half-life at 5 day,"[1]; both sexes, human, plasma, oral, Day 5, both doses, reliable in 3 out of the 10 profiles, read-out: individual plasma half-life",1.11 to 1.42 h
same,Tmax at 5 days,"[1]; both sexes, human, plasma, multiple oral doses 40 mg for 5 days",1.5 h
same,Tmax at 5 days,"[1]; both sexes, human, plasma, multiple oral doses 80 mg for 5 days",1 h
same,"dose proportionality of peak and overall exposure (Cmax, AUC(0-last))",[2]; 10 mg to 160 mg dose range,sub-proportional increase
same,physical or behavioral abnormalities vs vehicle,[3]; 10 and 20 mg/kg oral,no physical or behavioral abnormalities
same,significant changes in body weight vs vehicle,[3]; 10 and 20 mg/kg oral,no
same,uACR vs vehicle,[3]; 10 and 20 mg/kg oral,no significant difference
same,urine albumin concentration or total amount vs vehicle,[3]; 10 and 20 mg/kg oral,no significant difference
same,urine creatinine concentration or total amount vs vehicle,[3]; 10 and 20 mg/kg oral,no significant difference
same,creatinine marker of kidney function,[3]; doses up to 20 mg/kg oral,did not appear to have a significant impact
same,histological markers of kidney function (histological scores for tubular injury),[3]; doses up to 20 mg/kg oral,did not appear to have a significant impact
same,urine β2-MG levels and content compared with Group 2 (IR),"[3]; 10 mg/kg oral 1 hour prior to ischemia, p<0.5 (FIG. 1)",lower
same,urine β2-MG levels and content compared with Group 2 (IR),"[3]; 20 mg/kg oral 1 hour prior to ischemia, p<0.01 (FIG. 1)",lower
same,Tmax,[4],0.5 to 1.5 h
same,half-life,[4],0.74 to 2.58 h
same,AUC(0-t),[4]; 10 mg,> 0.127 ng·h/mL
same,Cmax,[4]; 10 mg,> 1.01 ng/mL
CC(N)C1CCCCC1 (stereo not shown) [1-cyclohexylethylamine],subjects with quantifiable concentrations,[1]; multiple oral dosing 40 mg or 80 mg Compound 8 for 5 days,all subjects
same,subjects with quantifiable concentrations,[1]; single dosing of Compound 8 Capsule 80 mg,all subjects
same,PK profiles,"[2]; after Compound 8 10 mg, 20 mg and 40 mg dose levels",entirely BLQ
same,subjects with quantifiable concentrations,[2]; after Compound 8 160 mg,all subjects
"C[C@@H](NC(=O)OC[n+]1cccc(C(=O)NCCO[N+](=O)[O-])c1)C1CCCCC1 [Compound 8, nitrate salt]",serum creatinine vs IR vehicle,"[5]; 5 mg/kg/iv single dose 30 min prior to ischemia, p<0.0001 (FIG. 2C)",phenomenally reduced
same,BUN vs IR vehicle,[5]; 5 mg/kg/iv single dose 30 min prior to ischemia,phenomenally reduced
same,urinary ACR vs IR vehicle,"[5]; 5 mg/kg/iv single dose 30 min prior to ischemia, p<0.001 (FIG. 3C)",phenomenally reduced
same,serum creatinine vs IR vehicle,"[5]; 10 mg/kg/iv single dose 30 min prior to ischemia, p<0.0001 (FIG. 2C)",phenomenally reduced
same,BUN vs IR vehicle,[5]; 10 mg/kg/iv single dose 30 min prior to ischemia,phenomenally reduced
same,urinary ACR vs IR vehicle,"[5]; 10 mg/kg/iv single dose 30 min prior to ischemia, p<0.001 (FIG. 3C)",phenomenally reduced
same,urinary ACR vs IR vehicle,"[5]; 25 mg/kg/ip single dose 30 min prior to ischemia, p<0.01 (FIG. 3B)",significantly reduced
same,urinary ACR vs IR vehicle,"[5]; 50 mg/kg/ip single dose 30 min prior to ischemia, p<0.001 (FIG. 3B)",significantly reduced
same,serum creatinine vs IR vehicle,"[5]; 50 mg/kg/ip single dose 30 min prior to ischemia, p<0.05 (FIG. 2B)",significantly reduced
same,urinary ACR vs IR vehicle,"[5]; 50 mg/kg/po single dose 30 min prior to ischemia, p<0.01 (FIG. 3A)",significantly reduced
same,urinary ACR vs IR vehicle,"[5]; 100 mg/kg/po single dose 30 min prior to ischemia, p<0.001 (FIG. 3A)",significantly reduced
same,serum creatinine vs IR vehicle,"[5]; 100 mg/kg/po single dose 30 min prior to ischemia, p<0.05 (FIG. 2A)",significantly reduced
same,proximal convoluted tubular injury scores,"[5]; intraperitoneal high dose 50 mg/kg, preventive, p<0.0001 (FIG. 6B)",effective in lowering
same,tubular injury marker β2-MG (urinary),"[5]; intraperitoneal low dose 25 mg/kg, preventive, p<0.01 (FIG. 8)",effective in lowering
same,"tubular injury/damage, histological images",[5]; intraperitoneal route (FIG. 7D),moderately ameliorated
same,tubular injury marker NGAL (urinary),"[5]; intravenous high dose 10 mg/kg, preventive, p<0.0001 (FIG. 5B)",robustly effective in lowering
same,proximal convoluted tubular injury scores,"[5]; intravenous high dose 10 mg/kg, preventive, p<0.0001 (FIG. 6C)",robustly effective in lowering
same,tubular injury marker NGAL (urinary),"[5]; intravenous low dose 5 mg/kg, preventive, p<0.0001 (FIG. 5B)",robustly effective in lowering
same,proximal convoluted tubular injury scores,"[5]; intravenous low dose 5 mg/kg, preventive, p<0.0001 (FIG. 6C)",robustly effective in lowering
same,"tubular injury/damage, histology","[5]; intravenous route, low and high doses (FIG. 6C, 7E)",markedly ameliorated
same,tubular injury marker NGAL (urinary),"[5]; oral high dose 100 mg/kg, preventive, p<0.0001 (FIG. 5A)",effective in lowering
same,proximal convoluted tubular injury scores/damage,"[5]; oral high dose 100 mg/kg, preventive, p<0.0001 (FIG. 6A)",effective in lowering
same,tubular injury marker NGAL (urinary),"[5]; oral low dose 50 mg/kg, preventive, p<0.0001 (FIG. 5A)",effective in lowering
same,"tubular injury/damage, histological images",[5]; oral route (FIG. 7C),moderately ameliorated
same,BUN,"[5]; therapeutic regimen, 10 mg/kg/iv at 1 hour, p<0.001 (FIG. 9B)",phenomenally reduced
same,BUN,"[5]; therapeutic regimen, 10 mg/kg/iv at 4 hours, p<0.0001 (FIG. 9B)",phenomenally reduced
same,urinary NGAL,"[5]; therapeutic regimen, 10 mg/kg/iv at 4 hours, p<0.01 (FIG. 9C)",phenomenally reduced
same,serum creatinine,"[5]; therapeutic regimen, 10 mg/kg/iv single dose at 1 hour after ischemia",phenomenally reduced
same,serum creatinine,"[5]; therapeutic regimen, 10 mg/kg/iv single dose at 4 hours after ischemia",phenomenally reduced
"O=C(NCCO[N+](=O)[O-])c1cccnc1 [Nicorandil, reference compound]",dose-proportionality of exposure from 40 mg to 80 mg (Cmax and AUC(0-tau)),[1],proportional increase
same,dose proportionality of peak (20-160 mg) and total (40-160 mg) exposure,"[2]; nicorandil after Compound 8, Cmax and AUC(0-last)",slightly greater than proportional
same,AUC,[6],101 (range of 122-323) hour·ng/m
same,Cmax,[6],107 (range of 44-148) ng/mL
same,Tmax,[6],0.43 (range 0.25-0.75) hours
same,activity in contrast induced nephropathy,[7],show activity
same,"proximal tubules, histological images",[5]; 10 mg/kg ip (FIG. 10D),most all proximal tubules are healthy
same,serum creatinine compared to Group 2,"[5]; 10 mg/kg ip single dose 30 min prior to ischemia, p<0.0001 (FIG. 10A)",significantly reduced
same,ACR compared to Group 2,"[5]; 10 mg/kg ip single dose 30 min prior to ischemia, p<0.0001 (FIG. 10B)",significantly reduced
same,tubular injury/damage compared to Group 2,"[5]; 10 mg/kg ip single dose 30 min prior to ischemia, p<0.0001 (FIG. 10C)",significantly reduced
